Reference: US20150258197A1, “EUTECTIC ISOMETHEPTENE MUCATE” (TONIX PHARMA HOLDINGS LIMITED, priority 2014, published 2015)

Columns and labels:
[1] = tested on: mice; assay: Tail-flick Test; type: in vivo; conditions: mouse
Description: (§1) Common mouse models for pain include the Formalin Test (Wheeler-Aceto, et al., Psychopharmacology, 104, 35-44, 1991), the Hot Plate Test (Eddy and Leimbach, J. Pharmacol. Exp. Ther., 107, 385-393, 1953), and the Tail-flick Test (D'Amour and Smith, J. Pharmacol. Exp. Ther., 1, 74-79, 1941). These methods detect analgesic activity of compositions of interest. In the Formalin Test, mice are given an intraplantar injection of 5% formalin into one posterior hindpaw to induce paw licking. Test compositions are given to the mice before treatment with formalin and the mice are evaluated and compared to a control group. In the Hot Plate Test, mice are placed onto a hot metal plate maintained at 54° C. and the latency to the first foot-lick is measured. As with the Formalin test, compositions of interest are given to the mice before the test and the mice are evaluated and compared to a control group. In the Tail-flick Test, a mouse's tail is heated by means of a thermal light source, and the latency before the animal withdraws its tail is measured. Test compositions are administered before the test, and compared with a vehicle control group. The analgesic activity of the compositions described herein can be identified using the mouse formalin, hot plate, and tail-flick tests.
A method for detecting analgesic activity followed that described by D'Amour and Smith (J. Pharmacol. Exp. Ther., 1, 74-79, 1941). The mouse's tail was heated by means of a thermal light source (20 volts). The latency before the animal withdraws its tail was measured (maximum: 15 seconds).
Ten mice were studied per group. The test was performed partially blind.
The test substances selected from (R)-isometheptene mucate, and (S)-isometheptene mucate were evaluated at three doses ([…]), administered p.o. 15 minutes before the test, and compared with a vehicle control group. […]
Data with the test substance were analyzed by comparing treated groups with vehicle control using ANOVA followed by post-hoc Dunnett's tests. Data with the reference substance were analyzed using unpaired Student's t tests.

[2] = tested on: mice; assay: Hot Plate Test; type: in vivo; conditions: mouse, hot plate 54° C., 10, 30 and 100 mg/kg p.o. 15 minutes before the test
Description: as §1, with “Test compositions are administered before the test, and compared with a vehicle control group. The analgesic activity of the compositions described herein can be identified using the mouse formalin, hot plate, and tail-flick tests.” left out
Mice were placed onto a hot metal plate maintained at 54° C. surrounded by a Plexiglas cylinder (height: 13 cm; diameter: 19 cm). The latency to the first foot-lick was measured (maximum: 30 seconds). […]
Data with the test substance were analyzed by comparing treated groups with vehicle control using ANOVA followed by post-hoc Dunnett's tests. […]

[3] = DSC/XRPD of binary mixtures of isometheptene mucate and mannitol (eutectic formation); type: physicochemical; conditions: binary mixtures at different ratios
Protocol: Because mannitol is a common excipient in solid drug formulations, it was examined for compatibility with racemic isometheptene mucate and investigated using DSC and the interactions occurring were assessed. […] To confirm the formation of a eutectic and to characterize its physical properties, several binary mixtures at different ratios of racemic isometheptene mucate and excipient were prepared and analyzed by DSC and by XRPD. The eutectic formation improved the cohesion between the racemic isometheptene mucate and excipient particles and assured better physical linking between the two.
In order to confirm the eutectic formation and to characterize its physical properties, several binary mixtures at different ratios of racemic isometheptene mucate-excipient were prepared and analyzed by DSC and by X-ray powder diffraction (XRPD). […] For each DSC heating curve, the onset temperature and the enthalpy were evaluated both for the eutectic contribute and for the excess of component. The recorded values were plotted and a phase diagram between the two components was obtained with a characteristic profile of phase diagrams of eutectic mixtures. […]
Aliquots of racemic isometheptene mucate API and mannitol were weighed in the ratios described below and ground in an agate mortar, and the homogeneous mixtures subsequently analyzed. […]

Structure (SMILES): CN[C@H](C)CCC=C(C)C [(R)-isometheptene mucate]
- Tail-flick activity relative to morphine ([1]; 100 mg/kg p.o. versus morphine 32 mg/kg): activity similar to that of morphine
- Tail flick latency compared to vehicle ([1]; thermal light source, three doses (10, 30, 100) p.o. 15 minutes before the test): longer tail flick latency times
- Foot-licking latency compared to vehicle [2]: longer foot-licking latency times
- Interaction with mannitol (eutectic vs adduct) [3]: only a physical eutectic formation
